“And” between values parts separate entries of the source, which are not always exact repeats. Equal values may be shown once. Read-outs that look alike come from different tables or passages of the source.
Experiments:
[1] = target: DAT (Homo sapiens, UniProt Q01959); test: Neurotransmitter transporter uptake assay, blocker; format: cell-based
[2] = target: OPRD1 (Homo sapiens, UniProt P41143); test: EFC-based cAMP secondary messenger assay, antagonist mode; format: cell-based
[3] = target: T1, MAO-A (Homo sapiens, UniProt P21397); test: MAO-A enzyme assay (kynuramine); format: biochemical
T1 construct: purchased Sigma
T1 sequence (P21397 1-527): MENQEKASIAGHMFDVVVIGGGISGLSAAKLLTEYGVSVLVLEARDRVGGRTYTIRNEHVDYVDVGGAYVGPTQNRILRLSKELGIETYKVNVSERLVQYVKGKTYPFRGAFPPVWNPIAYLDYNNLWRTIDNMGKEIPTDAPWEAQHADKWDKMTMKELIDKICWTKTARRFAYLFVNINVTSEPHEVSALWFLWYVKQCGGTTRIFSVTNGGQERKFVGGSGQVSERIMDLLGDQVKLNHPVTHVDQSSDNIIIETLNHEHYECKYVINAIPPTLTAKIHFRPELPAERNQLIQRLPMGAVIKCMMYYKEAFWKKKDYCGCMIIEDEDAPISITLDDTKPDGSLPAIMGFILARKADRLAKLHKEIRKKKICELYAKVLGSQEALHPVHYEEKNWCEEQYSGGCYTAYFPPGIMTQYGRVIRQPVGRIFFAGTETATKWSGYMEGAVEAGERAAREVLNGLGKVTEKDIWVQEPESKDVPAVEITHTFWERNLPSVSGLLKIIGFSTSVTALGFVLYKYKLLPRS

[4] = Mouse PK study (IV and PO), plasma parent compound and psilocin by LC-MS/MS; format: in vivo; conditions: for Plasma concentration of psilocin: BLQ <0.2 ng/mL; for Plasma concentration of C(I): BLQ <0.5 ng/mL; for F: C(I); for half-life: read-out: Apparent t1/2 (converted); for MRT inf: read-out: MRT0-inf
Text: Briefly, the procedure was as follows. […] 19, 2022.

[5] = 1 mg/kg i.v. C(I), 6 h, per animal
[6] = 1 mg/kg i.v. C(I), 8 h, per animal
[7] = 1 mg/kg oral C(I), 8 h, per animal
[8] = 1 mg/kg oral C(I), 24 h, per animal
[9] = 3 mg/kg oral C(I), 24 h, per animal
[10] = 10 mg/kg oral C(I), 24 h, per animal
[11] = C(I) in plasma, 3 mg/kg oral C(I), per animal, 3 mg/kg
[12] = C(I) in plasma, 10 mg/kg oral C(I), per animal, 10 mg/kg
[13] = male, C57Bl/6, mouse, plasma, intravenous, 1 mg/kg, 1 mg/kg i.v. C(I), Mean ± SD, read-out: Plasma concentration of C(I)
[14] = male, C57Bl/6, mouse, plasma, iv, 1 mg/kg, C(I) in plasma, 1 mg/kg i.v. C(I), Mean ± SD
[15] = male, C57Bl/6, mouse, plasma, iv, 1 mg/kg, C(I) in plasma, 1 mg/kg i.v. C(I), per animal
[16] = male, C57Bl/6, mouse, plasma, oral, 1 mg/kg, 1 mg/kg oral C(I), Mean ± SD, read-out: Plasma concentration of C(I)

DAT, sequence (Q01959 whole entry): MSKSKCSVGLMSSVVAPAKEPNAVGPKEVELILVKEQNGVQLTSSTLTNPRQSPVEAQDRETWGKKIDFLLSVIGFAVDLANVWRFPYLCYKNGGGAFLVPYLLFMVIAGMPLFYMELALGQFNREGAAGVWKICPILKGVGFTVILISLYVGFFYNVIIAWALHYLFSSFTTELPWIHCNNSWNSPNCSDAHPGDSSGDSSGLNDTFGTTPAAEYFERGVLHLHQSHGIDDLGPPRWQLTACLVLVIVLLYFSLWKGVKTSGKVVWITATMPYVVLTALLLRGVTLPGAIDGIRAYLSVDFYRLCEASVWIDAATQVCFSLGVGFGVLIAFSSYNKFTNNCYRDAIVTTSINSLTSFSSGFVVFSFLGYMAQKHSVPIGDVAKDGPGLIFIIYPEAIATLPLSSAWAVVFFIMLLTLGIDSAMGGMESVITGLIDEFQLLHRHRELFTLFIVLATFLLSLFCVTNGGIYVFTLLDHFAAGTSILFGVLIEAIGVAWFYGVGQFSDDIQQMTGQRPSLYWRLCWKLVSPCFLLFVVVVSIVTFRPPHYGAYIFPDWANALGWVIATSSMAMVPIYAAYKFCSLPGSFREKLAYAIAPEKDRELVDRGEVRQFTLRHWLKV
OPRD1, sequence (P41143 whole entry): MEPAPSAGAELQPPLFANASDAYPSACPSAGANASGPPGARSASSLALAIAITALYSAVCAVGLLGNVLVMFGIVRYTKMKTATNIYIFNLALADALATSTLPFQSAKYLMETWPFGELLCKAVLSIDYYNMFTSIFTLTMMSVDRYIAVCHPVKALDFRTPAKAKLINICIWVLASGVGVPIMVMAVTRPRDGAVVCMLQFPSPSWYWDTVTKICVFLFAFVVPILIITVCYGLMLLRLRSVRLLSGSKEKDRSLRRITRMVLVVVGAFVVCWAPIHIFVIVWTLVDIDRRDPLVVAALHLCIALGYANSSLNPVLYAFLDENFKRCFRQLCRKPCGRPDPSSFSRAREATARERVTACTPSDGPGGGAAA

`CN(C)CCc1c[nH]c2cccc(OC(=O)c3ccc(Br)cc3)c12` [C(I)] showed an IC50 [1] of 42.4 µM, an IC50 [2] greater than 100 µM and an IC50 [3] greater than 100 µM. For the same molecule, the “Plasma concentration of psilocin” value [4, 5] was “BLQ”, the “Plasma concentration of C(I)” value [4, 5] was “BLQ” and the “Plasma concentration of psilocin” value [4, 6] was “BLQ”. The “Plasma concentration of C(I)” value [4, 6] was “BLQ (2×) and No Peak”, the “Plasma concentration of C(I)” value ([4]; 1 mg/kg oral C(I), 1 h, per animal) was “BLQ” and the “Plasma concentration of C(I)” value ([4]; 1 mg/kg oral C(I), 2 h, per animal) was “BLQ”. For the same molecule, the “Plasma concentration of C(I)” value ([4]; 1 mg/kg oral C(I), 4 h, per animal) was “BLQ”, the “Plasma concentration of C(I)” value ([4]; 1 mg/kg oral C(I), 6 h, per animal) was “BLQ” and the “Plasma concentration of psilocin” value [4, 7] was “BLQ”. The “Plasma concentration of C(I)” value [4, 7] was “BLQ”, the “Plasma concentration of psilocin” value [4, 8] was “No Peak (2×) and BLQ” and the “Plasma concentration of C(I)” value [4, 8] was “No Peak and No (2×)”. For the same molecule, the “Plasma concentration of C(I)” value ([4]; 3 mg/kg oral C(I), 8 h, per animal) was “BLQ”, the “Plasma concentration of psilocin” value [4, 9] was “No Peak” and the “Plasma concentration of C(I)” value [4, 9] was “No Peak”. The “Plasma concentration of psilocin” value [4, 10] was “BLQ”, the “Plasma concentration of C(I)” value [4, 10] was “No Peak” and the AUC0-tlast/Dose ([4]; C(I) in plasma, 1 mg/kg i.v. C(I), mean (n = 2)) was 57.6 (n = 2) h * kg * ng/mL/mg. It also gave a VSS ([4]; C(I) in plasma, 1 mg/kg i.v. C(I), per animal, 1 mg/kg) of 12.65 L/kg, an AUC0-tlast/Dose ([4]; C(I) in plasma, 1 mg/kg oral C(I), Mean ± SD) of 1.34 ± 1.02 kg·ng·h/mL/mg and a Tmax ([4]; C(I) in plasma, 1 mg/kg oral C(I), per animal) of 30 min. For the same molecule, the Cmax/Dose ([4]; C(I) in plasma, 1 mg/kg oral C(I), per animal, 1 mg/kg) was 0.54 kg·ng/mL/mg, the Cmax/Dose [4, 11] was 0.650 kg·ng/mL/mg and 0.720 kg·ng/mL/mg and 0.780 kg·ng/mL/mg and the Tmax [4, 11] was 30 min. The Cmax [4, 12] was 7.10 ng/mL, the Cmax/Dose [4, 12] was 0.720 kg·ng/mL/mg and 0.710 kg·ng/mL/mg and the Tmax [4, 12] was 30 min. It also gave an F ([4]; 1 mg/kg oral C(I), Mean ± SD, AUC0-tlast used for p.o. group, might be under-estimated) of 0.355 ± 0.272%, an F ([4]; 1 mg/kg oral C(I), Mean ± SD, if M37 (i.v.) is considered as an outlier) of 2.30 ± 1.76% and an F ([4]; 1 mg/kg oral C(I), per animal, AUC0-tlast used for p.o. group, might be under-estimated, 1 mg/kg) of 0.0450%. The F ([4]; 1 mg/kg oral C(I), per animal, if M37 (i.v.) is considered as an outlier, 1 mg/kg) was 3.59% and 0.291% and 3.01%, the F ([4]; 3 mg/kg oral C(I), Mean ± SD, AUC0-tlast used for p.o. group, might be under-estimated) was 0.491 ± 0.0292% and the F ([4]; 3 mg/kg oral C(I), Mean ± SD, if M37 (i.v.) is considered as an outlier) was 3.18 ± 0.189%. For the same molecule, the F ([4]; 3 mg/kg oral C(I), per animal, AUC0-tlast used for p.o. group, might be under-estimated, 3 mg/kg) was 0.466%, the F ([4]; 3 mg/kg oral C(I), per animal, if M37 (i.v.) is considered as an outlier, 3 mg/kg) was 3.02% and 3.13% and 3.39% and the F ([4]; 10 mg/kg oral C(I), Mean ± SD) was 0.498 ± 0.113%. The F ([4]; 10 mg/kg oral C(I), Mean ± SD, if M37 (i.v.) is considered as an outlier) was 3.22 ± 0.731%, the F ([4]; 10 mg/kg oral C(I), per animal, 10 mg/kg) was 0.419% and the F ([4]; 10 mg/kg oral C(I), per animal, if M37 (i.v.) is considered as an outlier, 10 mg/kg) was 2.71% and 2.90% and 4.06%. It also gave a concentration at 5 min ([4]; male, C57Bl/6, mouse, plasma, intravenous, 1 mg/kg, 1 mg/kg i.v. C(I), 5 min, Mean ± SD, read-out: Plasma concentration of C(I)) of 944 ± 1450 ng/mL, a concentration at 0.25 h [4, 13] of 452 ± 691 ng/mL and a concentration at 0.5 h [4, 13] of 137 ± 183 ng/mL. For the same molecule, the concentration at 1 h ([4]; male, C57Bl/6, mouse, plasma, intravenous, 1 mg/kg, 1 mg/kg i.v. C(I), 1 h, Mean ± SD, read-out: Plasma concentration of C(I)) was 53.2 ± 64.8 ng/mL, the concentration at 2 h ([4]; male, C57Bl/6, mouse, plasma, intravenous, 1 mg/kg, 1 mg/kg i.v. C(I), 2 h, Mean ± SD, read-out: Plasma concentration of C(I)) was 19.9 ± 28.5 ng/mL and the concentration at 4 h ([4]; male, C57Bl/6, mouse, plasma, intravenous, 1 mg/kg, 1 mg/kg i.v. C(I), 4 h, Mean ± SD, read-out: Plasma concentration of C(I)) was 3.46 ± 4.7 ng/mL. It also gave a concentration at 6 h ([4]; male, C57Bl/6, mouse, plasma, intravenous, 1 mg/kg, 1 mg/kg i.v. C(I), 6 h, mean (n = 2), read-out: Plasma concentration of C(I)) of 2.51 ng/mL, a clearance [4, 14] of 198 mL/min/kg and an AUC(0-inf) ([4]; male, C57Bl/6, mouse, plasma, iv, 1 mg/kg, C(I) in plasma, 1 mg/kg i.v. C(I), Mean ± SD, read-out: AUC0-inf) of 377 ± 552 ng·h/mL. For the same molecule, the AUC(0-t) ([4]; male, C57Bl/6, mouse, plasma, iv, 1 mg/kg, C(I) in plasma, 1 mg/kg i.v. C(I), Mean ± SD, read-out: AUC0-tlast) was 374 ± 548 ng·h/mL, the half-life [4, 14] was 59.8 ± 18.5 min and the C0 ([4]; male, C57Bl/6, mouse, plasma, iv, 1 mg/kg, C(I) in plasma, 1 mg/kg i.v. C(I), Mean ± SD, read-out: C0) was 1360 ± 2100 ng/mL. The MRT inf [4, 14] was 40.1 ± 6.36 min, the Vd ([4]; male, C57Bl/6, mouse, plasma, iv, 1 mg/kg, C(I) in plasma, 1 mg/kg i.v. C(I), Mean ± SD, read-out: VSS) was 8.44 ± 6.83 L/kg and the half-life [4, 15] was 68.4 min. It also gave an MRT inf [4, 15] of 34.1 min, a concentration at 0.25 h [4, 16] of 0.646 ± 0.251 ng/mL and a concentration at 0.5 h [4, 16] of 0.877 ± 0.376 ng/mL.

Reference: US11746087B1, “C4-carboxylic acid-substituted tryptamine derivatives and methods of using” (priority 2022, dated 2023)
